Data on 3 molecules can be found in patent publication US20240116884A1, “Salts of Viloxazine” (Apotex Inc., priority 2022, published 2024).

The conditions of the data set: uncapped samples, 40° C./75% RH stability chamber, at least 3 weeks. The procedure:
PXRD diffractograms were recorded on a Bruker D8 Discover powder X-ray diffractometer (Bruker AXS LLC, Karlsruhe, Germany). The generator was a Incoatec Microfocus Source (IμS) Cu tube (λ=1.54060 Å) with a voltage of 50 kV and current of 1.00 mA, using a divergence slit of 0.1 mm and collimator of 2.0 mm. For each sample, two frames were collected using a still scan with a PILATUS3 R 100K-A detector at the distance of 294.2 mm from the sample. Raw data were evaluated using the program DIFFRAC.EVA (Bruker AXS LLC, Karlsruhe, Germany).
As for `CCOc1ccccc1OCC1CNCCO1.CCOc1ccccc1OCC1CNCCO1.O=C(O)C(O)C(O)C(=O)O` (racemic) [viloxazine hemi-DL-tartrate Form APO-I, viloxazine hemi-DL-tartrate], the “change in the crystalline form by PXRD (form stability)” value is “no change in the crystalline form occurred”.
For `CCOc1ccccc1OCC1CNCCO1.O=S(=O)(O)c1ccc2ccccc2c1` (stereo not drawn) [viloxazine naphthalene-2-sulfonate] the value was “no change in the crystalline form occurred”; for “viloxazine fumarate [viloxazine fumarate Form APO-I]”, “no change in the crystalline form occurred”.
